What was measured:
[1] = Metabolite profiling and identification in plasma, urine and feces (part A); type: in vivo, human healthy male volunteers; details: oral part A
Method: Participants were hospitalized from day 1 to day 16 of the study, and further assessed on days 19, 22, and 25 (trial end). […] Pre-dose feces and urine samples were collected on day 1 and day 2, respectively. Urine was collected at 4- to 12-h intervals on day 1 and every 24 h thereafter up to day 16. Feces were collected every 24 h up to day 16. Provision was made to collect further samples up to day 39 if >1% of the administered dose was detectable in the total (urine and feces) excreta per day on two consecutive measurements.
Metabolite profiling and structure elucidation in plasma, urine, and feces were performed at the Institute of Drug Metabolism and Pharmacokinetics, Merck KGaA, Grafing, Germany, using a radiometric UPLC method coupled to a high-resolution MS. For urine and feces, metabolites were identified in a single pooled sample per matrix and subject (urine pool of 4–120 h and feces pool of 0–192 h), that covered at least 90% of the total radioactivity of the respective matrix excreted. Intervals with low radioactivity were not used for the generation of the pooled samples to avoid dilution, and to increase the signal-to-noise ratio of the respective chromatograms.
The metabolite structure elucidation was performed using the linear trap quadrupole Orbitrap XL hybrid Fourier transform (FT) MS (Thermo Scientific, Dreieich, Germany) coupled to a Waters Acquity UPLC system. Full-scan FT spectra were acquired for measurement of the masses of molecular ions of parent and metabolites. MS^2 fragmentation spectra were acquired after high-energy collisional dissociation of the appropriate molecular ions. Allocation and confirmation of the proposed metabolites to the radioactive peaks were performed using an API4000 QTrap (AB Sciex, Darmstadt, Germany) MS with simultaneous splitting using a fraction collection system (CTC HTS PAL Fraction Collector, Axel Semrau, Sprockhövel, Germany), and offline radioactive measurement using a Topcount NXT® microplate scintillation counter (PerkinElmer, Rodgau, Germany).
The maximum plasma concentration (Cmax) and time to reach maximum concentration (tmax) were derived directly from the plasma concentration–time data. Lag time (tlag) was the time prior to the first measurable (non-zero) concentration. The area under the plasma concentration–time curve from 0 to t (last measurable concentration; AUC0–t) was calculated using a mixed log–linear trapezoidal method. Area under the plasma concentration–time curve until the last sampling time (AUCall), which corresponds to AUC0–240 h within the observation period, was used for metabolite calculations. Amounts excreted in urine, feces, and total (urine + feces) were calculated as the sum of amounts (concentration multiplied by volume) for each collection from time 0 to time t. The terminal rate constant (λz) was used to estimate the terminal half-life (t½) (ln 2/λz), and the area under the concentration–time curve from time 0 to infinity (AUC0–∞). Total body clearance (CL) and apparent body clearance (CL/f) were determined by dose/AUC0–∞, and total volume of distribution (Vz) and apparent volume of distribution (Vz/f) were calculated by dose/(AUC0–∞*λz) after IV and oral administration, respectively. Volume of distribution of the central compartment (Vc) was derived by dividing the dose by the initial drug plasma concentration after IV administration. Absolute bioavailability was calculated as F = (AUCoral/doseoral)/(AUCIV/doseIV) × 100. The ratios (%) AUCtepotinib or metabolite/AUCtotal radioactivity were calculated as a percentage of the molar AUCs.

[2] = design: method as in printed; details: preclinical results, bile-canaliculated rats, [14C]-tepotinib; ref not given; cited from earlier work

With `CN1CCC(COc2cnc(-c3cccc(Cn4nc(-c5cccc(C#N)c5)ccc4=O)c3)nc2)CC1` [Tepotinib] the “% of total radioactive administered dose excreted in feces or urine (excreta)” value ([1]; feces plus urine) was 52%, the “% of total administered radioactive dose excreted in feces” value ([1]; feces pool 0–192 h) was 45% and the “% of AUCall of total 14C-radioactivity in plasma” value ([1]; plasma, AUCall = AUC0–240 h, molar AUC ratio) was 55%. For the same compound, the “% of total administered radioactive dose excreted in urine” value ([1]; urine pool 4–120 h) was 7% and the “biliary excretion of radioactivity” value [2] was “a predominant fraction of radioactivity is excreted unchanged via the bile”.

Reference: publication PMC7497692 (Investigational New Drugs, 2020)
